The values that follow come from patent publication US20050276812A1, “Antibody-drug conjugates and methods” (Genentech, Inc., priority 2004, published 2005).

Usually IC50 stands for the point on the concentration scale where inhibition reaches its midpoint. A low value points to greater potency in that assay.

For data set [1], the system named is SK-BR-3 and BT-474 breast cancer cells. Put plainly: in vitro cellular proliferation assay of free drug and drug-linker. It is filed as cell-based. The source says: Pharmaceutical formulations of a therapeutic antibody-drug conjugate (ADC) may contain certain amounts of unreacted drug moiety (D), antibody-linker intermediate (Ab-L), and/or drug-linker intermediate (D-L), as a consequence of incomplete purification and separation of excess reagents, impurities, and by-products, in the process of making the ADC; or time/temperature hydrolysis or degradation upon storage of the bulk ADC or formulated ADC composition. […] Alternatively, or in addition to, it may contain a detectable amount of drug-linker intermediate DM1-SMCC. Alternatively, or in addition to, it may contain a detectable amount of the antibody, trastuzumab.
Efficacy of ADC were measured by a cell proliferation assay employing the following protocol (Promega Corp. Technical Bulletin TB288; Mendoza et al (2002) Cancer Res. 62:5485-5488): • 1. An aliquot of 100 μl of cell culture containing about 10^4 cells (SKBR-3, BT474, MCF7 or MDA-MB-468) in medium was deposited in each well of a 96-well, opaque-walled plate. • 2. Control wells were prepared containing medium and without cells. • 3. ADC was added to the experimental wells and incubated for 3-5 days. • 4. The plates were equilibrated to room temperature for approximately 30 minutes. • 5. A volume of CellTiter-Glo Reagent equal to the volume of cell culture medium present in each well was added. • 6. The contents were mixed for 2 minutes on an orbital shaker to induce cell lysis. • 7. The plate was incubated at room temperature for 10 minutes to stabilize the luminescence signal. • 8. Luminescence was recorded and reported in graphs as RLU=relative luminescence units.

A short description of data set [2]: 5-day acute toxicity study in rats. As to conditions: free DM1, 160 μg/kg (Group 6). In kind it is in vivo, female Sprague-Dawley rats.
Method: Antibody-drug conjugates and an ADC-minus control, “Vehicle”, were evaluated in an acute toxicity rat model. Toxicity of ADC was investigated by treatment of female Sprague-Dawley rats with the ADC and subsequent inspection and analysis of the effects on various organs. Based on gross observations (body weights), clinical pathology parameters (serum chemistry and hematology) and histopathology, the toxicity of ADC may be observed, characterized, and measured.
Body weight was measured daily. Clinical chemistry, serum enzymes and hematology analysis was conducted on days 3 and 5; concluding with complete necropsy with histopathological assessment.
Animals were injected on day 1, complete chemistry and hematology profiles were obtained at baseline, day 3 and day 5 and a complete necropsy was performed on day 5. Routine histology was performed on three random animals for each group for the following tissues: sternum, liver, kidney, thymus, spleen, large and small intestine.

`COc1cc2cc(c1Cl)N(C)C(=O)C[C@H](OC(=O)[C@H](C)N(C)C(=O)CCS)[C@]1(C)O[C@H]1[C@H](C)[C@@H]1C[C@@](O)(NC(=O)O1)[C@H](OC)/C=C/C=C(\C)C2` [DM1, N^2′-deacetyl-N^2′-(3-mercapto-1-oxopropyl)-maytansine] had an IC50 in data set [1] of 4.5 nM. In data set [2], the severity of toxicity result is listed as “less than that seen in animals of Group 2”.

For `COc1cc2cc(c1Cl)N(C)C(=O)C[C@H](OC(=O)[C@H](C)N(C)C(=O)CCSC1CC(=O)N(CC3CCC(C(=O)ON4C(=O)CCC4=O)CC3)C1=O)[C@]1(C)O[C@H]1[C@H](C)[C@@H]1C[C@@](O)(NC(=O)O1)[C@H](OC)/C=C/C=C(\C)C2` (stereo partly shown) [DM1-SMCC], in data set [1], half-maximal inhibition (IC50) required 50 nM and the “times less potent in cell killing than free drug DM1” value is “about 20 times”.
